In series [1] the test system is WM983-A, WM983-B, and SK-MEL-5 melanoma cell lines. In words: Apoptosis markers in treated melanoma cells. It is filed as cell-based, human. From the text:
Although the morphological changes in the WM983-A, WM983-B, and SK-MEL-5 melanoma cell lines following addition of anle138b occurred quite rapidly, they were not indicative of the cells undergoing apoptosis. […] Differential interference contrast (DIC) images of the morphology of the anle138b-treated WM983-B, SK-MEL-5, and WM1158 melanoma cells from the same panels are shown in FIG. 9.

The conditions of series [2]: in vivo; cited from earlier work.
A further series has as its system WM852 melanoma cells. Briefly: LDH cytotoxicity analysis. The following applies: 2, 5, 10 or 15 μM for 96 hr, replenishment at 48 hr.
Series [3] relates to WM983-B melanoma cells. Briefly: Melanoma cell proliferation analysis (hemocytometer counting). It counts as cell-based, human. The following applies: single dose of 10 μM, 24 hr. The protocol: To compare how rapidly anle138b affected the proliferation of melanoma cells, expressing α-synuclein at a high level, we treated the melanoma cell lines, WM983-A (VGP) and WM983-B (MGP), for 24, 48 or 72 hr with 10 μM of anle138b, with replenishment of the compound (10 μM) at 48 hr.
10 or 30 mM stock solutions of anle138b or anle138c were made in DMSO. Since anle138b as well as anle138c bind strongly to FBS, melanoma cells, plated for 24 hr in tissue-culture medium containing 10% FBS, were rinsed three times with serum-free medium prior to addition of anle138b, anle138c, or an equivalent volume of DMSO only in serum-free medium. Forty-eight hours later, the cell culture medium was removed, followed by addition of an equivalent dose of anle138b or anle138c, or DMSO only in serum-free culture medium. […] Proliferation of melanoma cells that had received DMSO only, or were treated with anle138b was determined by counting the cells with a hemocytometer.

Series [4] has as its system WM983-B melanoma cells. Briefly: LDH cytotoxicity analysis. The following applies: 2, 5, 10 or 15 μM for 96 hr, replenishment at 48 hr.
Protocol: (§1) Replicates of WM983-B as well as WM852 melanoma cells were plated at 3×10^5 cells per well in 35 mm tissue culture plates. Twenty-four hours later, the cells were rinsed three times with serum-free medium, followed by addition of increasing doses of anle138b or DMSO only. Forty-eight hours later, the cell culture medium was removed, followed by addition of equivalent doses of anle138b or DMSO only in serum-free medium. Culture medium, collected 48 hr later, was centrifuged to pellet and remove cellular debris. Using a PHERAstar FS microplate reader (BMG LABTECH GmbH, Ortenberg, Germany) and spectrophotometric absorbance measurement, the release of LDH enzyme activity into the tissue culture medium was determined with an LDH cytotoxicity assay kit (Roche Diagnostics Deutschland GmbH, Mannheim, Germany). […] Cells from the DMSO controls were trypsinized, counted, and lysed according to the manufacturer's instructions.

This is an account of results in patent US11180518B2, “Phenyl-heterocycle-phenyl derivatives for use in the treatment or prevention of melanoma” (MAX-PLANCK-GESELLSCHAFT ZUR FÖRDERUNG DER WISSENSCHAFTEN …, priority 2017, dated 2021).

Protocol for WM852 melanoma cells: as §1

With `Brc1cccc(-c2cc(-c3ccc4c(c3)OCO4)n[nH]2)c1` [anle138b, 5-(3-Bromophenyl)-3-(3,4-methylenedioxyphenyl)-1H-pyrazole], the “cleaved caspase 3 (apoptosis)” value in series [1] was “nor were they positive for cleaved caspase 3”. The “oral bioavailability and blood-brain-barrier penetration” value in series [2] is “excellent”. For the same molecule, in the series on WM852 melanoma cells, the “number of cells killed (LDH release) compared with WM983-B” value is reported as “significantly lower”. Also, the proliferation result with WM983-B melanoma cells [3] is recorded as “inhibited the proliferation of both cell lines to a significant extent”. In the series with WM983-B melanoma cells [4], the “cell killing (LDH release)” value is “strong killing that reached a maximum at a 10 μM dose”.
